Source: patent publication US20220220106A1, “QUINOLINE COMPOUNDS AND PHARMACEUTICAL COMPOSITIONS AND USES THEREOF” (Academy of Military Medical Sciences, priority 2019, published 2022)

Assays:
mTORC1 = biological target: T1, mTORC1 (Homo sapiens, UniProt P42345); assay: Western blot, phosphorylation of Thr389 of p70S6K1 in RD cells (mTORC1 inhibition); type: cell-based; settings: 20 μM, 2 hours, Western blot (FIG. 1)
T1 construct: endogenous in cells; host or cells: RD cells
Method: In order to test the inhibitory activity of the synthesized compounds on the two mTOR complexes, the inhibitory activity experiments of mTORC1 and mTORC2 were carried out. Since mTORC1 and mTORC2 exerted their function by activating the phosphorylation of downstream substrates, the inhibitory activity of the compounds on mTORC1 and mTORC2 could be determined by detecting the phosphorylation levels of the Thr389 site of mTORC1 downstream substrate p70S6K1 and the Ser473 site of mTORC2 downstream substrate Akt.
Pretreatment of Compound:
(1) RD cells were cultured in DMEM medium containing 10% FBS and 1×PS (penicillin and streptomycin were at concentrations 100 IU and 100 μg/mL, respectively) at 37° C. and 5% CO2.
(2) The RD cells (5×10^5 cells/2 mL medium) were inoculated into a 6-well plate and incubated at 37° C. and 5% CO2 for 24 hours.
(3) The cells were washed once with PBS, and the cells were cultured in serum-free medium without nutrients overnight.
(4) Formulation of compounds: […]
Preparation of insulin medium: Insulin was diluted in DMEM medium containing 10% FBS and 1×PS so that the final concentration of insulin was 167 nM.
Pretreatment of compound to be tested: The compound was dissolved in DMSO so that the concentration of the test compound was 20 mM, and the compound was diluted in 167 nM insulin medium to reach a concentration of 20 μM.
Preparation of rapamycin solution: Rapamycin was dissolved in DMSO to a concentration of 10 mM, and the rapamycin was diluted in 167 nM insulin medium to reach a concentration of 20 μM.
(5) The serum-free medium in each well was removed.
(6) 2 mL of complete medium containing DMSO was added to each well as a control carrier. The final concentration of DMSO was 0.2%.
(7) 2 mL of 20 μM rapamycin solution and 20 μM the compound to be tested were added to the designated wells, respectively. The final concentration of DMSO was 0.2%.
(8) The cells were incubated for 2 hours at 37° C. and 5% CO2.
Protein extraction and concentration determination:
(1) The cells were washed once with refrigerated PBS, and then the PBS was discarded.
(2) 150 μL of cell extraction buffer (RIPA, […], catalog number: C1053) was transferred into each well to lyse the cells, and then the resulting cell solution were incubated on ice for 30 minutes.
(3) Centrifugation was performed at 14000 rpm (13000× g) for 30 minutes at 4° C.
(4) The supernatant was transferred into a new eppendorf tube, and the cell lysate was stored at −80° C. before testing.
(5) The protein concentration was determined by BCA method.
Preparation of Buffer Solutions:
(1) 100× Protease inhibitor (Beyotime, catalog number: P1005): 1 mL of redistilled water was added to the protease inhibitor and stirred gently until the solid was completely dissolved.
(2) Lysis Buffer: […] of 100× protease inhibitor and 2× phosphatase inhibitor Cocktails PhosSTOP (Beyotime, catalog number: P1082) were added to 100 mL of the cell extract, and stirred gently until it was completely dissolved.
(3) Electrophoresis Running Buffer:
10×MOPS buffer: 52.33 g of MOPS, 30.29 g of Tris base, 10 mL of 0.5 mol/L EDTA (pH 8.5) and 5 g of SDS was dissolved in 400 mL of redistilled water, stirred to dissolve, and the pH was adjusted to 7.5, then redistilled water was added again to reach a volume of 500 mL; 1×MOPS: 100 mL of 10×MOPS was diluted with redistilled water to 1000 mL.
(4) 1× Transfer Buffer: […] of 10× transfer buffer (144 g of glucine, 30.3 g of trisbase, and distilled water were mixed to reach a volume of 1 L) and 400 mL of methanol were dissolved in 1500 mL of redistilled water, and then the redistilled water was added to reach a volume of 2000 mL. […]

Compound: O=C1Cc2cc(-c3ccc4ncc5ccc(=O)n(-c6cccc(C(F)(F)F)c6)c5c4c3)ccc2N1 [HTL-7-04, 9-[5-(2-oxo)indolyl]-2-oxo-1-[3-(trifluoromethyl)phenyl]-1,2-dihydrobenzo[h][1,6]naphthyridine]
- p70 phosphorylation expression level (mTORC1): significantly down-regulate

Compound: O=C(Nc1ccc(-c2ccc3ncc4ccc(=O)n(-c5cccc(C(F)(F)F)c5)c4c3c2)cn1)Oc1ccccc1 [HTL-7-15, 9-[3-(6-phenoxyamido)pyridyl]-2-oxo-1-[3-(trifluoromethyl)phenyl]-1,2-dihydrobenzo[h][1,6]naphthyridine]
- p70 phosphorylation expression level (mTORC1): significantly down-regulate

Compound: O=C(Nc1ccc(-c2ccc3ncc4ccc(=O)n(-c5cccc(C(F)(F)F)c5)c4c3c2)cn1)OCc1ccccc1 [HTL-7-14, 9-[3-(6-benzyloxyamido)pyridyl]-2-oxo-1-[3-(trifluoromethyl)phenyl]-1,2-dihydrobenzo[h][1,6]naphthyridine]
- p70 phosphorylation expression level (mTORC1): significantly down-regulate

Compound: NC(=O)/C=C/c1ccc2ncc3oc(=O)n(-c4cccc(C(F)(F)F)c4)c3c2c1 [HTL-6-30, (E)-8-(2-carbamoyl-vinyl)-1-[3-(trifluoromethyl)phenyl]oxazolo[5,4-c]quinolin-2(1H)-one]
- p70 phosphorylation expression level (mTORC1): significantly down-regulate
- melting point: 291 to 292 °C

Compound: CC(=O)/C=C/c1cnc2ccc(-c3ccc(C)nc3)cc2c1Nc1cccc(C(F)(F)F)c1 [HTL-2-38, (E)-6-[3-(6-methyl)pyridyl]-4-[3-(trifluoromethyl)phenyl]aminoquinoline-3-butenone]
- p70 phosphorylation expression level (mTORC1): significantly down-regulate
- melting point: 172 to 174 °C

Compound: NC(=O)c1ccc(-c2ccc3ncc4oc(=O)n(-c5cccc(C(F)(F)F)c5)c4c3c2)cc1 [HTL-5-21, 8-(4-carbamoyl)phenyl-1-[3-(trifluoromethyl)phenyl]oxazolo[5,4-c]quinolin-2(1H)-one]
- p70 phosphorylation expression level (mTORC1): significantly down-regulate
- melting point: 294 to 296 °C

Compound: O=C(Cc1ccccc1)Nc1ccc(-c2ccc3ncc4ccc(=O)n(-c5cccc(C(F)(F)F)c5)c4c3c2)cn1 [HTL-7-10, 9-[3-(6-phenylacetylamino)pyridyl]-2-oxo-1-[3-(trifluoromethyl)phenyl]-1,2-dihydrobenzo[h][1,6]naphthyridine]
- p70 phosphorylation expression level (mTORC1): significantly down-regulate

Compound: O=c1ccc2cnc3ccc(C4=CCC5(CC4)OCCO5)cc3c2n1-c1cccc(C(F)(F)F)c1 [HTL-7-13, 9-(1,4-dioxa-spiro[4.5]dec-7-en-8-yl)-2-oxo-1-[3-(trifluoromethyl)phenyl]-1,2-dihydrobenzo[h][1,6]naphthyridine]
- p70 phosphorylation expression level (mTORC1): significantly down-regulate
- melting point: 210 to 211 °C

Compound: O=c1ccc2cnc3ccc(-c4ccc(N5CCOCC5)nc4)cc3c2n1-c1cccc(C(F)(F)F)c1 [HTL-7-18, 9-[3-(6-morpholin-4-yl)pyridyl]-2-oxo-1-[3-(trifluoromethyl)phenyl]-1,2-dihydrobenzo[h][1,6]naphthyridine]
- p70 phosphorylation expression level (mTORC1): significantly down-regulate

Compound: Nc1cccc(Nc2ccc3ncc4ccc(=O)n(-c5cccc(C(F)(F)F)c5)c4c3c2)n1 [HTL-6-12, 9-[2-(6-aminopyridyl)]imino-2-oxo-1-[3-(trifluoromethyl)phenyl]-1,2-dihydrobenzo[h][1,6]naphthyridine]
- p70 phosphorylation expression level (mTORC1): significantly down-regulate

Compound: CCCC(=O)Nc1ccc(-c2ccc3ncc4ccc(=O)n(-c5cccc(C(F)(F)F)c5)c4c3c2)cn1 [HTL-7-05, 9-[3-(6-butyrylamino)pyridyl]-2-oxo-1-[3-(trifluoromethyl)phenyl]-1,2-dihydrobenzo[h][1,6]naphthyridine]
- p70 phosphorylation expression level (mTORC1): significantly down-regulate

Compound: COc1cc(-c2ccc3ncc4ccc(=O)n(-c5cccc(C(F)(F)F)c5)c4c3c2)cnc1N [HTL-7-19, 9-[3-(6-amino-5-methoxy)pyridyl]-2-oxo-1-[3-(trifluoromethyl)phenyl]-1,2-dihydrobenzo[h][1,6]naphthyridine]
- p70 phosphorylation expression level (mTORC1): significantly down-regulate
- melting point: 233 to 234 °C

Compound: O=c1ccc2cnc3ccc(-c4cc[nH]n4)cc3c2n1-c1cccc(C(F)(F)F)c1 [HTL-6-50, 9-[(1H)-3-pyrazolyl]-2-oxo-1-[3-(trifluoromethyl)phenyl]-1,2-dihydrobenzo[h][1,6]naphthyridine]
- p70 phosphorylation expression level (mTORC1): significantly down-regulate
- melting point: 283 to 286 °C

Compound: CN(C)c1ccc(-c2ccc3ncc4ccc(=O)n(-c5cccc(C(F)(F)F)c5)c4c3c2)cn1 [HTL-7-16, 9-[3-(6-N,N-dimethyl)pyridyl]-2-oxo-1-[3-(trifluoromethyl)phenyl]-1,2-dihydrobenzo[h][1,6]naphthyridine]
- p70 phosphorylation expression level (mTORC1): significantly down-regulate

Compound: O=c1ccc2cnc3ccc(-c4ccc(N5CCCC5)nc4)cc3c2n1-c1cccc(C(F)(F)F)c1 [HTL-7-20, 9-[3-(6-pyrrolidinyl)pyridyl]-2-oxo-1-[3-(trifluoromethyl)phenyl]-1,2-dihydrobenzo[h][1,6]naphthyridine]
- p70 phosphorylation expression level (mTORC1): significantly down-regulate

Compound: COc1ccc(CC(=O)Nc2ccc(-c3ccc4ncc5ccc(=O)n(-c6cccc(C(F)(F)F)c6)c5c4c3)cn2)cc1 [HTL-7-11, 9-{3-[6-(4-methoxy)phenylacetylamino]pyridyl}-2-oxo-1-[3-(trifluoromethyl)phenyl]-1,2-dihydrobenzo[h][1,6]naphthyridine]
- p70 phosphorylation expression level (mTORC1): significantly down-regulate
- melting point: 241 to 243 °C

Compound: CCCCC(=O)Nc1ccc(-c2ccc3ncc4ccc(=O)n(-c5cccc(C(F)(F)F)c5)c4c3c2)cn1 [HTL-7-08, 9-[3-(6-valerylamino)pyridyl]-2-oxo-1-[3-(trifluoromethyl)phenyl]-1,2-dihydrobenzo[h][1,6]naphthyridine]
- p70 phosphorylation expression level (mTORC1): significantly down-regulate

Compound: O=c1ccc2cnc3ccc(-c4ccc5ncccc5c4)cc3c2n1-c1cccc(C(F)(F)F)c1 [HTL-6-47, 9-(6-quinolyl)-2-oxo-1-[3-(trifluoromethyl)phenyl]-1,2-dihydrobenzo[h][1,6]naphthyridine]
- p70 phosphorylation expression level (mTORC1): significantly down-regulate
- melting point: 196 to 197 °C

Compound: Cc1ncccc1-c1ccc2ncc3ccc(=O)n(-c4cccc(C(F)(F)F)c4)c3c2c1 [HTL-6-49, 9-[3-(2-methyl)pyridyl]-2-oxo-1-[3-(trifluoromethyl)phenyl]-1,2-dihydrobenzo[h][1,6]naphthyridine]
- p70 phosphorylation expression level (mTORC1): significantly down-regulate

Compound: CC(C)(C)OC(=O)Nc1ccc(-c2ccc3ncc4ccc(=O)n(-c5cccc(C(F)(F)F)c5)c4c3c2)cn1 [HTL-7-21, 9-[3-(6-tert-butoxycarbonylamino)pyridyl]-2-oxo-1-[3-(trifluoromethyl)phenyl]-1,2-dihydrobenzo[h][1,6]naphthyridine]
- p70 phosphorylation expression level (mTORC1): significantly down-regulate

Compound: COc1ncc(-c2ccc3ncc4ccc(=O)n(-c5cccc(C(F)(F)F)c5)c4c3c2)cn1 [HTL-7-06, 9-[5-(2-methoxy)pyrimidyl]-2-oxo-1-[3-(trifluoromethyl)phenyl]-1,2-dihydrobenzo[h][1,6]naphthyridine]
- p70 phosphorylation expression level (mTORC1): significantly down-regulate
- melting point: 262 to 264 °C

Compound: Nc1cccc(Nc2ccc3ncc4ccc(=O)n(-c5cccc(C(F)(F)F)c5)c4c3c2)c1 [HTL-6-11, 9-(3-aminophenyl)imino-2-oxo-1-[3-(trifluoromethyl)phenyl]-1,2-dihydrobenzo[h][1,6]naphthyridine]
- p70 phosphorylation expression level (mTORC1): significantly down-regulate
